Experimental data from US20220339144A1, “PYRIDINYL INDOLE COMPOUNDS AND METHODS OF USE THEREOF” (Chinook Therapeutics Canada, Inc., priority 2021, published 2022).

Key:
[1] = biological target: T1, AMPKα1β1γ1 (Homo sapiens, UniProt Q13131+Q9Y478); assay: AMPKα1β1γ1 biochemical assay (LabChip EZ Reader mobility shift); settings: EC50 of Table 1; activation, normalized to DMSO vehicle control; read-out: Human AMPK AMPKα1β1γ1 EC50
T1 construct: purchased Carna Biosciences 02-113
Description: (§1) Compounds disclosed herein were evaluated for their ability to activate AMPKα1β1γ1 by measuring phosphorylation of a commercially available fluorescent AMPK substrate using the LabChip® EZ Reader microfluidic system that is based on a mobility shift principle in which unphosphorylated fluorescent substrates may be separated and distinguished from phosphorylated fluorescent substrates due to the difference in negative charge. Briefly, compounds were serial diluted 3-fold in 100% DMSO for an 11-point dose-response curve. A 20 nL aliquot of diluted compound was transferred into a 384-well plate using a liquid handler (Labcyte Inc., Echo 550). A pre-prepared solution (10 mM MgCl2, 0.01% Brij-35, 2 mM DTT, 0.05% BSA, 1 mM EGTA, and 50 mM HEPES pH 7.5) was combined with 0.83 nM AMPKα1β1γ1 (Carna Biosciences, 02-113). The enzyme solution (15 μL) was aliquoted into each well and the plate was incubated at 24° C. for 30 min. A second stock solution (10 mM MgCl2, 0.01% Brij-35, 2 mM DTT, 0.05% BSA, 1 mM EGTA, 800 μM ATP, and 50 mM HEPES pH 7.5) was combined with 6 μM fluorescent peptide substrate for AMPKal (Perkin Elmer, 760351). The kinase reaction was initiated by adding 5 μL of the second solution containing substrate and ATP to each well. The plate was incubated at 24° C. for 90 minutes and 75 μL of 0.5 M EDTA was added to terminate the reaction. The plates were analyzed using a LabChip® EZ Reader (Perkin Elmer, 122919) and the effective concentration to achieve 50% of the maximal activity (EC50) was calculated after normalizing to the DMSO vehicle control.

[2] = biological target: T2, AMPKα1β2γ1 (Homo sapiens, UniProt O43741+Q13131); assay: AMPKα1β2γ1 biochemical assay (LabChip EZ Reader mobility shift); settings: second EC50 column of Table 1 (head repeats α1β1γ1; text says α1β2γ1 isoform); read-out: Human AMPK AMPKα1β1γ1 EC50
T2 construct: purchased Carna Biosciences (printed only as 'Biosciences') 02-147
Description: as §1
The same procedure above was also used to measure activation of the AMPKα1β2γ1 isoform, replacing AMPKα1β1γ1 with AMPKα1β2γ1 Biosciences 02-147).

T2 sequence (Q13131 whole entry, canonical isoform): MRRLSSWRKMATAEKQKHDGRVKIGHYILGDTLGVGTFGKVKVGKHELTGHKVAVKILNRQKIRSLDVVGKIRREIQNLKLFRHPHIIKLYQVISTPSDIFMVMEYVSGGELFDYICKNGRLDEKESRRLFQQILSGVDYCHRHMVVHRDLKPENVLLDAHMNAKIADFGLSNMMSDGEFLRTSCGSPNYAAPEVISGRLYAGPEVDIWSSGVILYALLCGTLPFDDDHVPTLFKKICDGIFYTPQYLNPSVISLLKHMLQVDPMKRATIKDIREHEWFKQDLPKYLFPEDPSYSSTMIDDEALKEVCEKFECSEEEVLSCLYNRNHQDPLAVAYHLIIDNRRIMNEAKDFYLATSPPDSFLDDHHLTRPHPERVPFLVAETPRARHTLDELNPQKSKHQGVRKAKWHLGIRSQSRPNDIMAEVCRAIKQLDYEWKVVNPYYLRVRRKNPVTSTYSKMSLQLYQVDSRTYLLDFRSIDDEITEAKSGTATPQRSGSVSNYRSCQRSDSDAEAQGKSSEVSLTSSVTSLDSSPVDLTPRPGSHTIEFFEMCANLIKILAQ
T2 sequence (O43741 whole entry, canonical isoform): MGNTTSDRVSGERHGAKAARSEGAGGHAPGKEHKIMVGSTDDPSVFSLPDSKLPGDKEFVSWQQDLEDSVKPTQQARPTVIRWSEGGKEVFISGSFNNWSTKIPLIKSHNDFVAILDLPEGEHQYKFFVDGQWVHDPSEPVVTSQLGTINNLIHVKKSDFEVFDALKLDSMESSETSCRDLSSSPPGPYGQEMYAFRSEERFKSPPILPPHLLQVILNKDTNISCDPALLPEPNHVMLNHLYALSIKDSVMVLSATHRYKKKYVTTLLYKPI
T2 sequence (P54619 whole entry partner, canonical isoform): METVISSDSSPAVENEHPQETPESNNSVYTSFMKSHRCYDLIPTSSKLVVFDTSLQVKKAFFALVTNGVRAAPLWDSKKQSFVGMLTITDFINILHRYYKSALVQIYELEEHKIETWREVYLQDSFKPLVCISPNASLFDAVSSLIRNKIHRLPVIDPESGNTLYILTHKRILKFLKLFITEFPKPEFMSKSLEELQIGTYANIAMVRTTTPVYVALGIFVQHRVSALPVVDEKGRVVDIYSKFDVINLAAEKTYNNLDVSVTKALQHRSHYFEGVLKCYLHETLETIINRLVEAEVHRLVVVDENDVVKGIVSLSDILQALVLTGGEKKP
T1 sequence (Q13131 whole entry): as the sequence (Q13131 whole entry, canonical isoform) above
T1 sequence (Q9Y478 whole entry): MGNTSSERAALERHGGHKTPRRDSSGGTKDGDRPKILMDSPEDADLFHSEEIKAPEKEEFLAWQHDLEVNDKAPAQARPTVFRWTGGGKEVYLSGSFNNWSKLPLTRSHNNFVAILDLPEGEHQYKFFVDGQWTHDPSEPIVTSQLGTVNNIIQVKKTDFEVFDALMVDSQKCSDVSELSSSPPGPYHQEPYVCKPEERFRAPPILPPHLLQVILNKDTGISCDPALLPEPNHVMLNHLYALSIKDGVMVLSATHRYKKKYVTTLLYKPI
T1 sequence (P54619 whole entry partner): as the sequence (P54619 whole entry partner, canonical isoform) above

## COc1nc(N2CC3CC2CO3)ccc1-c1cc2c(C(=O)O)c[nH]c2cc1Cl (racemic) [Example 2, rac-5-(6-(2-oxa-5-azabicyclo[2.2.1]heptan-5-yl)-2-methoxypyridin-3-yl)-6-chloro-1H-indole-3-carboxylic acid]
[1]
  EC50: 100 to 250 nM

## COc1nc(N2CC3CC3(C#N)C2)ccc1-c1cc2c(C(=O)O)c[nH]c2cc1Cl (racemic) [Example 15, racemic-6-chloro-5-(6-(1-cyano-3-azabicyclo[3.1.0]hexan-3-yl)-2-methoxypyridin-3-yl)-1H-indole-3-carboxylic acid]
[1]
  EC50: 50 to 100 nM
[2]
  EC50: > 10000 nM

## COc1nc(N2CC3COC(C3)C2)ccc1-c1cc2c(C(=O)O)c[nH]c2cc1Cl (racemic) [Example 20, racemic-5-(6-(6-oxa-3-azabicyclo[3.2.1]octan-3-yl)-2-methoxypyridin-3-yl)-6-chloro-1H-indole-3-carboxylic acid]
[1]
  EC50: 50 to 100 nM

## COc1nc(N2CC3(CCC3O)C2)ccc1-c1cc2c(C(=O)O)c[nH]c2cc1Cl (racemic) [Example 25, racemic-6-chloro-5-(6-(5-hydroxy-2-azaspiro[3.3]heptan-2-yl)-2-methoxypyridin-3-yl)-1H-indole-3-carboxylic acid]
[1]
  EC50: 50 to 100 nM
[2]
  EC50: > 10000 nM

## COc1nc(N2CC3CC3(O)C2)ccc1-c1cc2c(C(=O)O)c[nH]c2cc1Cl (racemic) [Example 26, racemic-6-chloro-5-(6-(1-hydroxy-3-azabicyclo[3.1.0]hexan-3-yl)-2-methoxypyridin-3-yl)-1H-indole-3-carboxylic acid]
[1]
  EC50: ≤ 50 nM
[2]
  EC50: > 10000 nM

## COc1nc(N2C[C@H]3CCO[C@H]3C2)ccc1-c1cc2c(C(=O)O)c[nH]c2cc1Cl (racemic) [Example 28, racemic-6-chloro-5-(6-((cis)-hexahydro-5H-furo[2,3-c]pyrrol-5-yl)-2-methoxypyridin-3-yl)-1H-indole-3-carboxylic acid]
[1]
  EC50: ≤ 50 nM
[2]
  EC50: > 10000 nM

## COc1nc(N2CC3CCC(C2)O3)ccc1-c1cc2c(C(=O)O)c[nH]c2cc1Cl (racemic) [Example 29, racemic-5-(6-(8-oxa-3-azabicyclo[3.2.1]octan-3-yl)-2-methoxypyridin-3-yl)-6-chloro-1H-indole-3-carboxylic acid]
[1]
  EC50: 100 to 250 nM

## COc1nc(N2CC3CCC2CO3)ccc1-c1cc2c(C(=O)O)c[nH]c2cc1Cl (racemic) [Example 30, racemic-5-(6-(2-oxa-5-azabicyclo[2.2.2]octan-5-yl)-2-methoxypyridin-3-yl)-6-chloro-1H-indole-3-carboxylic acid]
[1]
  EC50: 100 to 250 nM

## COc1nc(N2CCC3(CCO3)CC2)ccc1-c1cc2c(C(=O)O)c[nH]c2cc1Cl (racemic) [Example 31, racemic-6-chloro-5-(2-methoxy-6-(1-oxa-7-azaspiro [3.5]nonan-7-yl)pyridin-3-yl)-1H-indole-3-carboxylic acid]
[1]
  EC50: 50 to 100 nM

## COc1nc(N2C[C@@H]3COC[C@H]3C2)ccc1-c1cc2c(C(=O)O)c[nH]c2cc1Cl (racemic) [Example 32, racemic-6-chloro-5-(2-methoxy-6-((trans)tetrahydro-1H-furo[3,4-c]pyrrol-5(3H)-yl)pyridin-3-yl)-1H-indole-3-carboxylic acid]
[1]
  EC50: ≤ 50 nM

## COc1nc(N2CCC3(CCOC3)C2)ccc1-c1cc2c(C(=O)O)c[nH]c2cc1Cl (racemic) [Example 37, racemic-6-chloro-5-(2-methoxy-6-(2-oxa-7-azaspiro [4.4]nonan-7-yl)pyridin-3-yl)-1H-indole-3-carboxylic acid]
[1]
  EC50: 100 to 250 nM

## COc1nc(N2CC3(COC3)C2)ccc1-c1cc2c(C(=O)O)c[nH]c2cc1Cl [Example 1, 6-chloro-5-(2-methoxy-6-(2-oxa-6-azaspiro[3.3]heptan-6-yl)pyridin-3-yl)-1H-indole-3-carboxylic Acid]
[1]
  EC50: ≤ 50 nM
[2]
  EC50: > 10000 nM

## COc1nc(N2C[C@@H]3[C@@H](CO)[C@@H]3C2)ccc1-c1cc2c(C(=O)O)c[nH]c2cc1Cl [Example 3, 6-chloro-5-(6-((trans)-6-(hydroxymethyl)-3-azabicyclo [3.1.0]hexan-3-yl)-2-methoxypyridin-3-yl)-1H-indole-3-carboxylic acid]
[1]
  EC50: ≤ 50 nM
[2]
  EC50: 250 to 10000 nM

## COc1nc(N2CC3(CC(O)C3)C2)ccc1-c1cc2c(C(=O)O)c[nH]c2cc1Cl [Example 4, 6-chloro-5-(6-(6-hydroxy-2-azaspiro[3.3]heptan-2-yl)-2-methoxypyridin-3-yl)-1H-indole-3-carboxylic acid]
[1]
  EC50: ≤ 50 nM
[2]
  EC50: > 10000 nM

## COc1nc(N2CCC3(COC3)C2)ccc1-c1cc2c(C(=O)O)c[nH]c2cc1Cl [Example 5, 6-chloro-5-(2-methoxy-6-(2-oxa-6-azaspiro[3.4]octan-6-yl)pyridin-3-yl)-1H-indole-3-carboxylic acid]
[1]
  EC50: ≤ 50 nM
[2]
  EC50: > 10000 nM

## COc1nc(N2CC3(CN(C(=O)OC(C)(C)C)C3)C2)ccc1-c1cc2c(C(=O)O)c[nH]c2cc1Cl [Example 6, 5-(6-(6-(tert-butoxycarbonyl)-2,6-diazaspiro[3.3]heptan-2-yl)-2-methoxypyridin-3-yl)-6-chloro-1H-indole-3-carboxylic acid]
[1]
  EC50: 50 to 100 nM
[2]
  EC50: > 10000 nM

## COc1nc(N2CC3(CC(NC(=O)OC(C)(C)C)C3)C2)ccc1-c1cc2c(C(=O)O)c[nH]c2cc1Cl [Example 7, 5-(6-(6-((tert-butoxycarbonyl)amino)-2-azaspiro[3.3]heptan-2-yl)-2-methoxypyridin-3-yl)-6-chloro-1H-indole-3-carboxylic acid]
[1]
  EC50: ≤ 50 nM

## COc1nc(N2CC3(CCCO3)C2)ccc1-c1cc2c(C(=O)O)c[nH]c2cc1Cl [Example 8, 6-chloro-5-(2-methoxy-6-(5-oxa-2-azaspiro[3.4]octan-2-yl)pyridin-3-yl)-1H-indole-3-carboxylic acid]
[1]
  EC50: ≤ 50 nM
[2]
  EC50: > 10000 nM

## COC[C@@H]1[C@H]2CN(c3ccc(-c4cc5c(C(=O)O)c[nH]c5cc4Cl)c(OC)n3)C[C@@H]12 [Example 9, 6-chloro-5-(2-methoxy-6-((trans)-6-(methoxymethyl)-3-azabicyclo[3.1.0]hexan-3-yl)pyridin-3-yl)-1H-indole-3-carboxylic acid]
[1]
  EC50: ≤ 50 nM
[2]
  EC50: > 10000 nM

## COc1nc(N2CC3(CC(N)C3)C2)ccc1-c1cc2c(C(=O)O)c[nH]c2cc1Cl [Example 10, 5-(6-(6-amino-2-azaspiro[3.3]heptan-2-yl)-2-methoxypyridin-3-yl)-6-chloro-1H-indole-3-carboxylic Acid]
[1]
  EC50: ≤ 50 nM
[2]
  EC50: > 10000 nM

## COc1nc(N2CC3(CNC3)C2)ccc1-c1cc2c(C(=O)O)c[nH]c2cc1Cl [Example 11, 6-chloro-5-(2-methoxy-6-(2,6-diazaspiro[3.3]heptan-2-yl)pyridin-3-yl)-1H-indole-3-carboxylic acid]
[1]
  EC50: 50 to 100 nM

## COc1nc(N2C[C@H]3C[C@H]3C2)ccc1-c1cc2c(C(=O)O)c[nH]c2cc1Cl [Example 14, 5-(6-(3-azabicyclo[3.1.0]hexan-3-yl)-2-methoxypyridin-3-yl)-6-chloro-1H-indole-3-carboxylic acid]
[1]
  EC50: 50 to 100 nM

## COc1nc(N2CC3(CCS3(=O)=O)C2)ccc1-c1cc2c(C(=O)O)c[nH]c2cc1Cl [Example 16, 6-chloro-5-(6-(1,1-dioxido-1-thia-6-azaspiro[3.3]heptan-6-yl)-2-methoxypyridin-3-yl)-1H-indole-3-carboxylic acid]
[1]
  EC50: ≤ 50 nM

## COc1nc(N2CCC3(CCOCC3)C2)ccc1-c1cc2c(C(=O)O)c[nH]c2cc1Cl [Example 35, 6-chloro-5-(2-methoxy-6-[8-oxa-2-azaspiro[4.5]decan-2-yl]pyridin-3-yl)-1H-indole-3-carboxylic acid]
[1]
  EC50: 100 to 250 nM

## COc1nc(N2CC3(CCOCC3)C2)ccc1-c1cc2c(C(=O)O)c[nH]c2cc1Cl [Example 36, 6-chloro-5-(2-methoxy-6-(7-oxa-2-azaspiro[3.5]nonan-2-yl)pyridin-3-yl)-1H-indole-3-carboxylic acid]
[1]
  EC50: 100 to 250 nM

## COc1nc(N2CC3CC(C2)O3)ccc1-c1cc2c(C(=O)O)c[nH]c2cc1Cl [Example 39, 5-(6-(6-oxa-3-azabicyclo[3.1.1]heptan-3-yl)-2-methoxypyridin-3-yl)-6-chloro-1H-indole-3-carboxylic acid]
[1]
  EC50: ≤ 50 nM

## COc1nc(N2CC3(COC3)C2)ccc1-c1cc2c(C(=O)O)c[nH]c2cc1F [Example 40, 6-fluoro-5-(2-methoxy-6-[2-oxa-6-azaspiro[3.3]hentan-6-yl]pyridin-3-yl)-1H-indole-3-carboxylic Acid]
[1]
  EC50: 100 to 250 nM
